Assay results reported in the supplement of paper PMC11208160.

Experiment: recombinant UMI read abundance after kanamycin selection (control-corrected) (log10(CPM+1)); higher = more efficient recombination; extreme values may be limits of the assay; sequences stand for … in AGTGCAGAGAAAATCGGCCAGTTTTCTCTGCCTGCAGTCCGCATGCCGTGGGACCCCTTGGGTTCTAACCTGTTGCCTAGATTTATGCAGCGGACTGCCTTTCTCCCAAAGTGATAAACCGG…AGGTTGGTTTCACT; site = the 11-nt donor
Method in brief: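 Values, expressed as log10(CPM+1), derive from recombinant UMI counts converted to CPM, averaged across replicates and scaled by control-derived factors. Plating was with IPTG (0.07 mM) plus kanamycin or unselected, two replicates each. The screen pooled donor and donor-binding-loop pairs for the IS621 bridge recombinase in Escherichia coli.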
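Further: IS621 bridge recombinase in Escherichia coli cells against a fixed T5 target plasmid.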

Sequence	recombinant UMI read abundance (log10)
TCCTTGACATGGACCGGTTTTCCCGGTAATCCGTATTTGCT (site TCCTTGACTAG)	0
TCCTTGACATGGACCGGTTTTCCCGGTAATCCGTATTTGCT (site TGCTTGACTAG)	0
TCCTTGACATGGACCGGTTTTCCCGGTAATCCGTATTTGCT (site TTCTTGACTAG)	0
TCGAAGCCATGGACCGGTTTTCCCGGTAATCCGTATTTGGG (site ACGAAGCCTCC)	0.0545
TCGAAGCCATGGACCGGTTTTCCCGGTAATCCGTATTTGGG (site CCGAAGCCTCC)	0.0131
TCGAAGCCATGGACCGGTTTTCCCGGTAATCCGTATTTGGG (site GCGAAGCCTCC)	0.0961
TCGAAGCCATGGACCGGTTTTCCCGGTAATCCGTATTTGGG (site TCGAAGCCTCC)	0.0129
TCGAATACATGGACCGGTTTTCCCGGTAATCCGTATTTGAG (site TCGAATACTCT)	1.44
TCGACAGCATGGACCGGTTTTCCCGGTAATCCGTATTTGTA (site TCGACAGCTTA)	1.02
TCGACATCATGGACCGGTTTTCCCGGTAATCCGTATTTGCG (site TCGACATCTCG)	0.266
TCGACCGCATGGACCGGTTTTCCCGGTAATCCGTATTTGCG (site TCAACCGCTCG)	0.00755
TCGACCGCATGGACCGGTTTTCCCGGTAATCCGTATTTGCG (site TCCACCGCTCG)	0
TCGACCGCATGGACCGGTTTTCCCGGTAATCCGTATTTGCG (site TCGACCGCTCG)	0.0218
TCGACCGCATGGACCGGTTTTCCCGGTAATCCGTATTTGCG (site TCTACCGCTCG)	0.0287
TCGACCTCATGGACCGGTTTTCCCGGTAATCCGTATTTGGA (site TCGACCTCTTC)	0.524
TCGAGAGCATGGACCGGTTTTCCCGGTAATCCGTATTTGGC (site TCGAGAGCTGC)	1.86
TCGCACACATGGACCGGTTTTCCCGGTAATCCGTATTTGGG (site TCGCACACTCC)	0.0145
TCGCAGACATGGACCGGTTTTCCCGGTAATCCGTATTTGCG (site TCGCAGACTCG)	0.0105
TCGCAGCCATGGACCGGTTTTCCCGGTAATCCGTATTTGCT (site TCGCAGCCTAG)	0
TCGCCATCATGGACCGGTTTTCCCGGTAATCCGTATTTGGC (site GAAGGCCCTAG)	0
TCGCGTACATGGACCGGTTTTCCCGGTAATCCGTATTTGGG (site TCGCGTACTCC)	0.0193
TCGCTAGCATGGACCGGTTTTCCCGGTAATCCGTATTTGCT (site TCGCTAGCTAG)	0
TCGCTCTCATGGACCGGTTTTCCCGGTAATCCGTATTTGGC (site TCGCTCTCTGC)	0
TCGCTGACATGGACCGGTTTTCCCGGTAATCCGTATTTGTA (site TCGCTGACTTA)	1.3
TCGGACCCATGGACCGGTTTTCCCGGTAATCCGTATTTGGG (site TCGGACCCTCC)	0.036

Sequence	recombinant UMI read abundance (log10)
TCGGACCCATGGACCGGTTTTCCCGGTAATCCGTATTTGTT (site TCGGACCCTAA)	0.013
TCGGTAGCATGGACCGGTTTTCCCGGTAATCCGTATTTGTG (site TCGGTAGCTCA)	0.629
TCGTACGCATGGACCGGTTTTCCCGGTAATCCGTATTTGCC (site TCGTACGCTGG)	0
TCGTATCCATGGACCGGTTTTCCCGGTAATCCGTATTTGAC (site TCGTATCCTGT)	0
TCGTCACCATGGACCGGTTTTCCCGGTAATCCGTATTTGTA (site TCGTCACCTTA)	0.0393
TCGTGCACATGGACCGGTTTTCCCGGTAATCCGTATTTGAC (site TCGTGCACTGT)	1.93
TCGTTCGCATGGACCGGTTTTCCCGGTAATCCGTATTTGCT (site TCGTTCGCTAG)	0
TCTAAGTCATGGACCGGTTTTCCCGGTAATCCGTATTTGCA (site TCTAAGTCTTG)	0.436
TCTAGAACATGGACCGGTTTTCCCGGTAATCCGTATTTGAG (site ACTAGAACTCT)	0.00743
TCTAGAACATGGACCGGTTTTCCCGGTAATCCGTATTTGAG (site CCTAGAACTCT)	0.0482
TCTAGAACATGGACCGGTTTTCCCGGTAATCCGTATTTGAG (site GCTAGAACTCT)	0
TCTAGAACATGGACCGGTTTTCCCGGTAATCCGTATTTGAG (site TCTAGAACTCT)	0.00301
TCTATGACATGGACCGGTTTTCCCGGTAATCCGTATTTGTG (site TCTATGACTCA)	0.00894
TCTGGACCATGGACCGGTTTTCCCGGTAATCCGTATTTGAC (site TCTGGACCTGT)	0
TCTGGCGCATGGACCGGTTTTCCCGGTAATCCGTATTTGCC (site TCTGGCGCTGG)	0
TCTTCCGCATGGACCGGTTTTCCCGGTAATCCGTATTTGAT (site TCTTCCGCTAT)	0.00526
TCTTCGGCATGGACCGGTTTTCCCGGTAATCCGTATTTGGC (site TCTTCGGCTGC)	0
TGAAGCTCATGGACCGGTTTTCCCGGTAATCCGTATTTGGG (site TGAAGCTCTCC)	0.0156
TGACAACCATGGACCGGTTTTCCCGGTAATCCGTATTTGCC (site TGACAACCTGG)	0
TGACACCCATGGACCGGTTTTCCCGGTAATCCGTATTTGAA (site TGACACCCTTT)	0.0711
TGACCGGCATGGACCGGTTTTCCCGGTAATCCGTATTTGGC (site TGACCGGCTGC)	1.25
TGACCGGCATGGACCGGTTTTCCCGGTAATCCGTATTTGGC (site TGCCCGGCTGC)	0
TGACCGGCATGGACCGGTTTTCCCGGTAATCCGTATTTGGC (site TGGCCGGCTGC)	0
TGACCGGCATGGACCGGTTTTCCCGGTAATCCGTATTTGGC (site TGTCCGGCTGC)	0
TGACGGTCATGGACCGGTTTTCCCGGTAATCCGTATTTGAA (site TGACGGTCTTT)	1.52

Sequence	recombinant UMI read abundance (log10)
TGACTATCATGGACCGGTTTTCCCGGTAATCCGTATTTGCC (site TGACTATCTGG)	1.54
TGAGCTACATGGACCGGTTTTCCCGGTAATCCGTATTTGCC (site TGAGCTACTGG)	0.451
TGAGCTTCATGGACCGGTTTTCCCGGTAATCCGTATTTGTA (site TGAGCTTCTTA)	1.92
TGAGGCACATGGACCGGTTTTCCCGGTAATCCGTATTTGGT (site TGAGGCACTAC)	0.463
TGAGGTCCATGGACCGGTTTTCCCGGTAATCCGTATTTGAA (site TGAGGTCCTTT)	0.00722
TGAGTCACATGGACCGGTTTTCCCGGTAATCCGTATTTGAC (site TGAGTCACTGT)	2.61
TGATAGACATGGACCGGTTTTCCCGGTAATCCGTATTTGCC (site AGATAGACTGG)	1.96
TGATAGACATGGACCGGTTTTCCCGGTAATCCGTATTTGCC (site CGATAGACTGG)	2.02
TGATAGACATGGACCGGTTTTCCCGGTAATCCGTATTTGCC (site GGATAGACTGG)	0
TGATAGACATGGACCGGTTTTCCCGGTAATCCGTATTTGCC (site TGATAGACTGG)	2.54
TGATCCTCATGGACCGGTTTTCCCGGTAATCCGTATTTGCT (site CGATCATCTAG)	0.523
TGATCCTCATGGACCGGTTTTCCCGGTAATCCGTATTTGCT (site TGATCCTCTAG)	1.81
TGATGAGCATGGACCGGTTTTCCCGGTAATCCGTATTTGGG (site TAATGAGCTCC)	0.0122
TGATGAGCATGGACCGGTTTTCCCGGTAATCCGTATTTGGG (site TCATGAGCTCC)	0.0102
TGATGAGCATGGACCGGTTTTCCCGGTAATCCGTATTTGGG (site TGATGAGCTCC)	0.403
TGATGAGCATGGACCGGTTTTCCCGGTAATCCGTATTTGGG (site TTATGAGCTCC)	0.0217
TGATTAGCATGGACCGGTTTTCCCGGTAATCCGTATTTGGG (site TGATTAGCTCC)	0
TGCACCACATGGACCGGTTTTCCCGGTAATCCGTATTTGCT (site TGCACCACTAG)	1.3
TGCACGGCATGGACCGGTTTTCCCGGTAATCCGTATTTGTT (site TGCACGGCTAA)	0.724
TGCCACCCATGGACCGGTTTTCCCGGTAATCCGTATTTGTT (site AGCCACCCTAA)	0.00473
TGCCACCCATGGACCGGTTTTCCCGGTAATCCGTATTTGTT (site CGCCACCCTAA)	0.0165
TGCCACCCATGGACCGGTTTTCCCGGTAATCCGTATTTGTT (site GGCCACCCTAA)	0.00763
TGCCACCCATGGACCGGTTTTCCCGGTAATCCGTATTTGTT (site TGCCACCCTAA)	0.0117
TGCCATGCATGGACCGGTTTTCCCGGTAATCCGTATTTGCC (site TGCCATGCTGG)	0.0153
TGCCCAACATGGACCGGTTTTCCCGGTAATCCGTATTTGGT (site TGCCCAACTAC)	0.06
